Data reported in patent US11702400B2, “Salt types, crystal forms, and preparation methods for benzopyrazole compounds as RHO kinase inhibitors” (MEDSHINE DISCOVERY INC., priority 2019, dated 2023).

How the values were obtained:
[1] = Accelerated stability test of the crystal form A of the compound of formula (II-1); format: physicochemical; conditions: 40° C./75% RH
Protocol: Accelerated stability test: each sample was weighed 0.8 g (accelerated 1 month, accelerated 2 months) or 1.2 g (accelerated 3 months, accelerated 6 months) into double-layer low-density polyethylene (LDPE) bags, and each layer of LDPE bags was pierced and sealed, and then the LDPE bags were put into aluminum foil bags and heat sealed, respectively, and put into 40° C./75% RH conditions for investigation.

[2] = Pharmacokinetic study of the crystal form A of the compound of formula (II-1) in Beagle dogs; format: in vivo
Protocol: Experimental purpose: To study the pharmacokinetics of the compounds in Beagle dogs
Experimental materials: Beagle dogs (12, half male and half female)
Experimental procedure: The pharmacokinetic characteristics of the compounds were tested in Beagle dogs after intravenous (IV) and oral (PO) administration using standard protocols. The candidate compounds were prepared into 0.5 mg/mL and 1.5 mg/mL clarified solutions and administrated to Beagle dogs for single intravenous injection and oral administration. The solvent for both intravenous and oral administration was 5% DMSO/95% (10% hydroxypropyl β-cyclodextrin) aqueous solution. 12 beagle dogs were used in this project, 6 beagle dogs (half male and half female) were administered intravenously at a dose of 1 mg/kg and plasma samples were collected at […], 0.5, 1, 2, 4, 8, 12, 24, 36, 48 and 72 h after administration, and the other 6 beagle dogs (half male and half female) were administered orally by gavage at a dose of 7.5 mg/kg and plasma samples were collected at 0.25, 0.5, 1, 2, 4, 8, 12, 24, 36, 48 and 72 h after administration. 15 μL of plasma sample was added to a 96-well plate, and 300 μL of internal standard working solution (MeOH (containing 1.00 ng/mL Verapamil and 0.1% formic acid (FA)): ACN (v:v, 50:50) solution) was added to precipitate the proteins, the 96-well plate was shaken for 15 min, followed by centrifugation at 4° C., 3220 g for 15 min. 150 μL of supernatant was placed in a new 96-well plate with 150 μL of aqueous solution containing 0.1% formic acid (FA) and shaken for 10 min, and then centrifuged at 4° C., 3220 g for 5 min. The sample was directly injected, and the plasma drug concentration was quantitatively analyzed by LC-MS/MS analysis method, and pharmacokinetic parameters were calculated, such as peak concentration (Cmax), clearance rate (CL), half-life (T1/2), […] (Vdss), area under the drug-time curve (AUC0-last), bioavailability (F), etc.

Content ([1]; 0 day): 99.5%
Impurity at RRT 0.66 ([1]; 0 day): 0.06%
Impurity at RRT 0.85 ([1]; 0 day): 0.34%
Impurity at RRT 0.90 ([1]; 0 day): 0.02%
Impurity at RRT 1.64 ([1]; 0 day): 0.06%
Total impurities ([1]; 0 day): 0.46%
Content ([1]; 1 month): 100.0%
Impurity at RRT 0.66 ([1]; 1 month): 0.06%
Impurity at RRT 0.85 ([1]; 1 month): 0.36%
Impurity at RRT 0.90 ([1]; 1 month): 0.02%
Impurity at RRT 1.64 ([1]; 1 month): 0.05%
Total impurities ([1]; 1 month): 0.47%
Content ([1]; 2 months): 99.6%
Impurity at RRT 0.66 ([1]; 2 months): 0.06%
Impurity at RRT 0.85 ([1]; 2 months): 0.33%
Impurity at RRT 0.90 ([1]; 2 months): 0.03%
Impurity at RRT 1.64 ([1]; 2 months): 0.04%
Total impurities ([1]; 2 months): 0.39%
Content ([1]; 3 months): 98.8%
Impurity at RRT 0.66 ([1]; 3 months): 0.06%
Impurity at RRT 0.85 ([1]; 3 months): 0.33%
Impurity at RRT 0.90 ([1]; 3 months): 0.04%
Impurity at RRT 1.64 ([1]; 3 months): 0.04%
Total impurities ([1]; 3 months): 0.39%
Clearance rate CL ([2]; Beagle dogs, IV 1 mg/kg): 22.3 mL/min/kg
Half-life T1/2 (IV) ([2]; Beagle dogs, IV 1 mg/kg): 12.4 h
Tissue distribution Vdss ([2]; Beagle dogs, IV 1 mg/kg): 18.6 L/kg
Bioavailability F ([2]; Beagle dogs, IV 1 mg/kg, PO 7.5 mg/kg): 90.4%
Area under drug-time curve AUC0-last PO ([2]; Beagle dogs, PO 7.5 mg/kg): 12.6 µM·h
Cmax ([2]; Beagle dogs, half male and half female, PO 7.5 mg/kg, read-out: Peak concentration Cmax): 834 nM
pharmacokinetic properties (conclusion in words) ([2]; beagle dogs): good pharmacokinetic properties
Structure (SMILES): COc1cccc(C(CN)NC(=O)c2cc(-c3ccc4[nH]nc(C)c4c3)ccn2)c1.Cl.Cl (stereo not shown)
